{
  "source": "patent US20080234288A1",
  "about": "“Hcv Inhibiting Sulfonamides” (priority 2003, published 2008)",
  "tested_on": "HCV replicon (NS3-NS5B regions of HCV type 1b) in Huh-7 luc/neo cells",
  "experiment": "HCV replicon assay, stable replicon cell reporter assay (Huh-Luc, luciferase)",
  "format": "cell-based",
  "details": "Hepatitis C virus, Huh-7, 72 h, incubation of three days, luciferase activity",
  "description": "The compounds of the present invention were examined for activity in the inhibition of HCV RNA replication in a cellular assay. […] The cellular assay was based on a bicistronic expression construct, as described by Lohmann et al. (1999) Science vol. 285 pp. 110-113 with modifications described by Krieger et al. (2001) Journal of Virology 75: 4614-4624, in a multi-target screening strategy. In essence, the method is as follows.\nThe assay utilized the stably transfected cell line Huh-7 luc/neo (hereafter referred to as Huh-Luc; kindly provided by Dr Ralf Bartenschlager, Reblikon GmBh, Germany). This cell line harbors an RNA encoding a bicistronic expression construct comprising the wild type NS3-NS5B regions of HCV type 1b translated from an Internal Ribosome Entry Site (IRES) from encephalomyocarditis virus (EMCV), preceded by a reporter portion (FfL-luciferase), and a selectable marker portion (neo^R, neomycine phosphotransferase). The construct was bordered by 5′ and 3′ NTRs (non-translated regions) from HCV type 1b. Continued culture of the replicon cells in the presence of G418 (neo^R) is dependent on the replication of the HCV RNA. The stably transfected replicon cells that express HCV RNA, which replicates autonomously and to high levels, encoding inter alia luciferase, were used for screening the antiviral compounds.\nThe replicon cells were plated in 384 well plates in the presence of the test and control compounds which were added in various concentrations. Following an incubation of three days, HCV replication was measured by assaying luciferase activity (using standard luciferase assay substrates and reagents and a Perkin Elmer ViewLux™ ultraHTS microplate imager). Replicon cells in the control cultures have high luciferase expression in the absence of any inhibitor. The inhibitory activity of the compound on luciferase activity was monitored on the Huh-Luc cells, enabling a dose-response curve for each test compound. EC50 values were then calculated, which value represents the amount of the compound required to decrease by 50% the level of detected luciferase activity, or more specifically, the ability of the genetically linked HCV replicon RNA to replicate (Table 1).",
  "note": "Structures can show the parent of a compound that is named as a salt.",
  "data": [
    {"smiles": "CC(C)CN(CC(O)C(Cc1ccccc1)NC(=O)OCc1cncs1)S(=O)(=O)c1ccc2nc(N(C)C(=O)c3ccccn3)oc2c1", "note": "(stereo not shown) [Compound 36, [1-Benzyl-2-hydroxy-3-(isobutyl-{2-[methyl-(pyridine-2-carbonyl)-amino]-benzooxazole-6-sulfonyl}-amino)-propyl]-carbamic acid thiazol-5-ylmethyl ester]", "values": [
      {"measurement": "EC50", "value": "10 to 32", "unit": "µM"}
    ]},
    {"smiles": "CC(C)CN(CC(O)C(Cc1ccccc1)NC(=O)OCc1cncs1)S(=O)(=O)c1ccc2nc(N(C)C(=O)C3CCCN3C)oc2c1", "note": "(stereo not shown) [Compound 40, [1-Benzyl-2-hydroxy-3-(isobutyl-{2-[methyl-(1-methyl-pyrrolidine-2-carbonyl)-amino]-benzooxazole-6-sulfonyl}-amino)-propyl]-carbamic acid thiazol-5-ylmethyl ester trifluoroacetate salt]", "values": [
      {"measurement": "EC50", "value": "10 to 32", "unit": "µM"}
    ]},
    {"smiles": "CC(=O)N(C)c1nc2ccc(S(=O)(=O)N(CC(C)C)CC(O)C(Cc3ccccc3)NC(=O)OCc3cncs3)cc2s1", "note": "(stereo not shown) [Compound 21, (3-{[2-(Acetyl-methyl-amino)-benzothiazole-6-sulfonyl]-isobutyl-amino}-1-benzyl-2-hydroxy-propyl)-carbamic acid thiazol-5-ylmethyl ester]", "values": [
      {"measurement": "EC50", "value": "10 to 32", "unit": "µM"}
    ]},
    {"smiles": "CC(C)CN(CC(O)C(Cc1ccccc1)NC(=O)OCc1cncs1)S(=O)(=O)c1ccc2nc(N(C)CCN3CCCC3)oc2c1", "note": "(stereo not shown) [Compound 6, {1-Benzyl-2-hydroxy-3-(isobutyl-{2-[methyl-(2-pyrrolidin-1-yl-ethyl)-amino]-benzooxazole-6-sulfonyl}-amino)-propyl]-carbamic acid thiazol-5-ylmethyl ester]", "values": [
      {"measurement": "EC50", "value": "10 to 32", "unit": "µM"}
    ]},
    {"smiles": "CC(C)CN(CC(O)C(Cc1ccccc1)NC(=O)OCc1cncs1)S(=O)(=O)c1ccc2nc(N(C)C(=O)C3CCCN(C)C3)oc2c1", "note": "(stereo not shown) [Compound 37, [1-Benzyl-2-hydroxy-3-(isobutyl-{2-[methyl-(1-methyl-piperidine-3-carbonyl)-amino]-benzooxazole-6-sulfonyl}-amino)-propyl]-carbamic acid thiazol-5-ylmethyl ester]", "values": [
      {"measurement": "EC50", "value": "10 to 32", "unit": "µM"}
    ]},
    {"smiles": "CC(C)CN(CC(O)C(Cc1ccccc1)NC(=O)OCc1cncs1)S(=O)(=O)c1ccc2ncn(CCc3ccccc3)c2c1", "note": "(stereo not shown) [Compound 41, {1-Benzyl-2-hydroxy-3-[isobutyl-(3-phenethyl-3H-benzo-imidazole-5-sulfonyl)-amino]-propyl}-carbamic acid thiazol-5-ylmethyl ester]", "values": [
      {"measurement": "EC50", "value": "10 to 32", "unit": "µM"}
    ]},
    {"smiles": "CC(C)CN(CC(O)C(Cc1ccccc1)NC(=O)OCc1cnco1)S(=O)(=O)c1ccc2nc(N)oc2c1", "note": "(stereo not shown) [Compound 34, {3-[(2-Amino-benzooxazole-6-sulfonyl)-isobutyl-amino]-1-benzyl-2-hydroxy-propyl}-carbamic acid oxazol-5-ylmethyl ester]", "values": [
      {"measurement": "EC50", "value": "10 to 32", "unit": "µM"}
    ]},
    {"smiles": "CC(C)CN(CC(O)C(Cc1ccccc1)NC(=O)OCc1cncs1)S(=O)(=O)c1ccc2nc(N)oc2c1", "note": "(stereo not shown) [Compound 45, {3-[(2-Amino-benzooxazole-6-sulfonyl)-isobutyl-amino]-1-benzyl-2-hydroxy-propyl}-carbamic acid thiazol-5-ylmethyl ester]", "values": [
      {"measurement": "EC50", "value": "2 to 10", "unit": "µM"}
    ]},
    {"smiles": "CC(C)CN(CC(O)C(Cc1ccccc1)NC(=O)OCc1cncs1)S(=O)(=O)c1ccc2nc(NC(=O)c3ccc(O)nc3)oc2c1", "note": "(stereo not shown) [Compound 3, [1-Benzyl-2-hydroxy-3-({2-[(6-hydroxy-pyridine-3-carbonyl)-amino]-benzooxazole-6-sulfonyl}-isobutyl-amino)-propyl]-carbamic acid thiazol-5-ylmethyl ester]", "values": [
      {"measurement": "EC50", "value": "< 2", "unit": "µM"}
    ]},
    {"smiles": "CC(C)CN(CC(O)C(Cc1ccccc1)NC(=O)OCc1cncs1)S(=O)(=O)c1ccc2nc(N(C)C(=O)c3ccoc3)oc2c1", "note": "(stereo not shown) [Compound 10, [1-Benzyl-3-({2-[(furan-3-carbonyl)-methyl-amino]-benzo-oxazole-6-sulfonyl}-isobutyl-amino)-2-hydroxy-propyl]-carbamic acid thiazol-5-ylmethyl ester]", "values": [
      {"measurement": "EC50", "value": "2 to 10", "unit": "µM"}
    ]},
    {"smiles": "CC(C)CN(CC(O)C(Cc1ccccc1)NC(=O)OCc1cncs1)S(=O)(=O)c1ccc2nc(NCCCN(C)C)sc2c1", "note": "(stereo not shown) [Compound 17, (1-Benzyl-3-{[2-(3-dimethylamino-propylamino)-benzo-thiazole-6-sulfonyl]-isobutyl-amino}-2-hydroxy-propyl)-carbamic acid thiazol-5-ylmethyl ester]", "values": [
      {"measurement": "EC50", "value": "10 to 32", "unit": "µM"}
    ]},
    {"smiles": "CC(C)CN(CC(O)C(Cc1ccccc1)NC(=O)OCc1cncs1)S(=O)(=O)c1ccc2nc(N3CCCCC3)oc2c1", "note": "(stereo not shown) [Compound 31, {1-Benzyl-2-hydroxy-3-[isobutyl-(2-piperidin-1-yl-benzo-oxazole-6-sulfonyl)-amino]-propyl}-carbamic acid thiazol-5-ylmethyl ester]", "values": [
      {"measurement": "EC50", "value": "2 to 10", "unit": "µM"}
    ]},
    {"smiles": "CC(C)CN(CC(O)C(Cc1ccccc1)NC(=O)OCc1cncs1)S(=O)(=O)c1ccc2nc(N(C)C)oc2c1", "note": "(stereo not shown) [Compound 33, {1-Benzyl-3-[(2-dimethylamino-benzooxazole-6-sulfonyl)-isobutyl-amino]-2-hydroxy-propyl}-carbamic acid thiazol-5-ylmethyl ester]", "values": [
      {"measurement": "EC50", "value": "10 to 32", "unit": "µM"}
    ]},
    {"smiles": "CC(C)CN(CC(O)C(Cc1ccccc1)NC(=O)OCc1cncs1)S(=O)(=O)c1ccc2nc(NC(=O)c3cccnc3)oc2c1", "note": "(stereo not shown) [Compound 4, [1-Benzyl-2-hydroxy-3-(isobutyl-{2-[(pyridine-3-carbonyl)-amino]-benzooxazole-6-sulfonyl}-amino)-propyl]-carbamic acid thiazol-5-ylmethyl ester]", "values": [
      {"measurement": "EC50", "value": "2 to 10", "unit": "µM"}
    ]},
    {"smiles": "CC(C)CN(CC(O)C(Cc1ccccc1)NC(=O)OCc1cncs1)S(=O)(=O)c1ccc2nc(N(C)C(=O)C3CCN(C)CC3)oc2c1", "note": "(stereo not shown) [Compound 38, [1-Benzyl-2-hydroxy-3-(isobutyl-{2-[methyl-(1-methyl-piperidine-4-carbonyl)-amino]-benzooxazole-6-sulfonyl}-amino)-propyl]-carbamic acid thiazol-5-ylmethyl ester]", "values": [
      {"measurement": "EC50", "value": "10 to 32", "unit": "µM"}
    ]},
    {"smiles": "CC(C)CN(CC(O)C(Cc1ccccc1)NC(=O)OCc1cncs1)S(=O)(=O)c1ccc2ncn(CC(C)C)c2c1", "note": "(stereo not shown) [Compound 42, {1-Benzyl-2-hydroxy-3-[isobutyl-(3-isobutyl-3H-benzo-imidazole-5-sulfonyl)-amino]-propyl}-carbamic acid thiazol-5-ylmethyl ester]", "values": [
      {"measurement": "EC50", "value": "2 to 10", "unit": "µM"}
    ]},
    {"smiles": "CCOC(=O)Nc1nc2ccc(S(=O)(=O)N(CC(C)C)CC(O)C(Cc3ccccc3)NC(=O)OCc3cncs3)cc2o1", "note": "(stereo not shown) [Compound 2, (6-{[2-Hydroxy-4-phenyl-3-(thiazol-5-ylmethoxycarbonyl-amino)-butyl]-isobutyl-sulfamoyl}-benzooxazol-2-yl)-carbamic acid ethyl ester]", "values": [
      {"measurement": "EC50", "value": "10 to 32", "unit": "µM"}
    ]},
    {"smiles": "Cc1nc(-c2ccc(S(=O)(=O)N(CC(C)C)CC(O)C(Cc3ccccc3)NC(=O)OCc3cncs3)cc2)co1", "note": "(stereo not shown) [Compound 44, (1-Benzyl-2-hydroxy-3-{isobutyl-[4-(2-methyl-oxazol-4-yl)-benzenesulfonyl]-amino}-propyl)-carbamic acid thiazol-5-ylmethyl ester]", "values": [
      {"measurement": "EC50", "value": "10 to 32", "unit": "µM"}
    ]},
    {"smiles": "CC(C)CN(CC(O)C(Cc1ccccc1)NC(=O)OCc1cncs1)S(=O)(=O)c1ccc2nc(NC(=O)c3ccccn3)oc2c1", "note": "(stereo not shown) [Compound 27, [1-Benzyl-2-hydroxy-3-(isobutyl-{2-[(pyridine-2-carbonyl)-amino]-benzooxazole-6-sulfonyl}-amino)-propyl]-carbamic acid thiazol-5-ylmethyl ester]", "values": [
      {"measurement": "EC50", "value": "2 to 10", "unit": "µM"}
    ]}
  ]
}
